Results on one molecule are retold here after ChEMBL document CHEMBL4334516, “Kinase Chemodiversity from the Arctic: The Breitfussins” (J Med Chem, 2019).

In series [1] the target is Serine/threonine-protein kinase RIO1 (Homo sapiens, UniProt Q9BRS2). Nature of the series: Binding affinity to wild-type human full length RIOK1 (M1 to K568 residues) expressed in bacterial expression system by active-site directed competition binding assay based Kinomescan method.
Series [2] concerns the target Mitogen-activated protein kinase kinase kinase 9 (Homo sapiens, UniProt P80192). Nature of the series: Inhibition of MLK1 (unknown origin) assessed as residual enzyme activity at 1 uM by [33P]-ATP filter binding kinase assay relative to control.
Series [3] can be described thus: Permeability assessed as drug flux at 500 uM incubated for 20 hrs by PAMPA. The series is classed as ADME. (In general: The PAMPA barrier holds no transporters, so it reflects passive diffusion.)
In series [4] the target is T1, Mitogen-activated protein kinase kinase kinase 7 (Homo sapiens) (UniProt O43318).
T1 sequence (whole entry): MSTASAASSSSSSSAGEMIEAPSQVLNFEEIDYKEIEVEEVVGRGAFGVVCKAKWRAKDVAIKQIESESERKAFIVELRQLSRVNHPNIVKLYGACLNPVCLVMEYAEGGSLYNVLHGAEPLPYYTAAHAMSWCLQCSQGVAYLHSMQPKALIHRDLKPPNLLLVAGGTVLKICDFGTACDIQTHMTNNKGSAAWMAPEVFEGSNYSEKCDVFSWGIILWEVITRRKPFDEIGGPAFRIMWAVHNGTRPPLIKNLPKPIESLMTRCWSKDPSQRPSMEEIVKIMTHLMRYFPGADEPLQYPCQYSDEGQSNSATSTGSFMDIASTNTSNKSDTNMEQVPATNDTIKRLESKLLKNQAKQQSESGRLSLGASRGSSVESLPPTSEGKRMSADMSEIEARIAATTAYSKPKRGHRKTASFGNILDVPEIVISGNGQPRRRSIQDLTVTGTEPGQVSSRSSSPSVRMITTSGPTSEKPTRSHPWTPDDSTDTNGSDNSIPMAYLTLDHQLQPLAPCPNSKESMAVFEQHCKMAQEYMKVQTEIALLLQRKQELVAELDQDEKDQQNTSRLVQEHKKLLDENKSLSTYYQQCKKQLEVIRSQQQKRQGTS
Briefly: Binding affinity to wild-type human partial length TAK1 (M1 to Q303 residues) expressed in mammalian expression system assessed as residual binding level at 10 uM by active-site directed competition binding assay based Kinomescan method relative to control.

The test system of the next series is HT-29. Briefly: Cytotoxicity in human HT-29 cells assessed as reduction in cell viability by MTS assay. The series is classed as functional, cell-based. As to conditions: TDE = time-dependent effect. (Tetrazolium dyes change colour on reduction, which living cells bring about.)

Chain of Serine/threonine-protein kinase RIO1 (Q9BRS2 whole entry, the tested form may be a part): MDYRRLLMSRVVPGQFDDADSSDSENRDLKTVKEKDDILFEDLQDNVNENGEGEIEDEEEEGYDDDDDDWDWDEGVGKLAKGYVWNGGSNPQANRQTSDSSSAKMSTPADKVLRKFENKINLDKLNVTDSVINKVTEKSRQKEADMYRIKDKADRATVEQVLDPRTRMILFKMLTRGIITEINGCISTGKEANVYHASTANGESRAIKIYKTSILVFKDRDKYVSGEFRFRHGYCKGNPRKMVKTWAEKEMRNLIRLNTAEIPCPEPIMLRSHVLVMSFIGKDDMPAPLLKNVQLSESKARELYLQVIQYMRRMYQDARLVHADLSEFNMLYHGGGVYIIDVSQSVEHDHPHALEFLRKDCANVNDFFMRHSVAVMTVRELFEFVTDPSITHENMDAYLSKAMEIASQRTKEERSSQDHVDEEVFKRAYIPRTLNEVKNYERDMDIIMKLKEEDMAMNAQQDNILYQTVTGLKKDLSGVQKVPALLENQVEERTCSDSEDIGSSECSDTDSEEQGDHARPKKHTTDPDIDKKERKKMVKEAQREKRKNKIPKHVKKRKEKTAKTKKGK
Chain of Mitogen-activated protein kinase kinase kinase 9 (P80192 whole entry, looked up, the tested form may be a part): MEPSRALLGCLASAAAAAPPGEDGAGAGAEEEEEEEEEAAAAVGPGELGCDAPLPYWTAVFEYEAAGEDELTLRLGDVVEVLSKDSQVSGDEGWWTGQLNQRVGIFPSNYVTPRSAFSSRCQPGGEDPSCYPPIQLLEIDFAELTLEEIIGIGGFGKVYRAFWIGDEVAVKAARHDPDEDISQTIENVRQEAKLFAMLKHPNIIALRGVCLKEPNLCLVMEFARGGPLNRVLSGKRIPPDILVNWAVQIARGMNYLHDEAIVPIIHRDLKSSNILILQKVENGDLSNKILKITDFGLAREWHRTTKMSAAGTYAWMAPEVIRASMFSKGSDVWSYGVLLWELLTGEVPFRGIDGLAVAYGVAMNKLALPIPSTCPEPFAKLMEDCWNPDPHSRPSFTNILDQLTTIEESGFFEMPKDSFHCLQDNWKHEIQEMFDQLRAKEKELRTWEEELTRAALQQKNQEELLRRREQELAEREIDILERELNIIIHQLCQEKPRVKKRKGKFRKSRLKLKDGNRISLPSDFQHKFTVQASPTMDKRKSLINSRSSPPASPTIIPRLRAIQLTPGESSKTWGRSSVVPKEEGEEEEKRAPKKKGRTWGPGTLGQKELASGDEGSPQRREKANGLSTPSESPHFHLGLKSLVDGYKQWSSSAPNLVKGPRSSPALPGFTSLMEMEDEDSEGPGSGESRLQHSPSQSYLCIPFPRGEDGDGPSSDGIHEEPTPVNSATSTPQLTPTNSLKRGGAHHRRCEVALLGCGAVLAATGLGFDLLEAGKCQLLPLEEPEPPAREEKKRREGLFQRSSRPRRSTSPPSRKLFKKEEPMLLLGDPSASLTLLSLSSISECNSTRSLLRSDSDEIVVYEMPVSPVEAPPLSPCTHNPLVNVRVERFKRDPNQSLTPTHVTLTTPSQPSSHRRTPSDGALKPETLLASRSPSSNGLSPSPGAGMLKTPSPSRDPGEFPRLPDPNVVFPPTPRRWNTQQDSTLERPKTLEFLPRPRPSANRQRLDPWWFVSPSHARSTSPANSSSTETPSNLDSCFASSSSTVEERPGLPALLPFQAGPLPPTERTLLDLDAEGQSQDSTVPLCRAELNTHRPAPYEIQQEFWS

Usually Kd stands for the concentration at which binding is half-saturated. Turning to `COc1cc2c(-c3cnc(-c4ccc[nH]4)o3)c[nH]c2cc1Br`, the affinity in series [1], expressed as Kd, was 2900 nM. Besides, the Activity was 26% in series [2], 70% in series [4] and “Tde” in the series with HT-29. Besides, the permeability in series [3] turned out to be 23%.
